Results as given in patent US20250332173A1, “COMPOUNDS AND METHODS FOR MODULATING NUCLEIC ACID SPLICING” (REMIX THERAPEUTICS INC., priority 2021, published 2025).
Like-named read-outs stand apart in the source and are kept apart here.

What was measured:
Format in all cases: cell-based, human
Target C [1] = assay: RT-qPCR splicing assay panel, Target C canonical junction (CJ) mRNA; conditions: Homo sapiens; Table 5 panel; canonical junction qPCR; compound concentration having 50% response in CJ decrease; read-out: Target C IC50 (decrease in CJ mRNA levels)
Summary of the method: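 Read-out is canonical exon-exon junction mRNA quantified by RT-qPCR against a GAPDH, GUSB or PPIA control. Cells (A673 or K562) received compound for 24 h, top final dose 10 uM in an 11-point 3-fold series.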

MYB mRNA = assay: RT-qPCR splicing assay, MYB canonical junction (CJ) and alternative junction (AJ) mRNA; conditions: Homo sapiens; for AC50: increase in MYB alternative junction (AJ) mRNA, read-out: MYB AJ AC50
Summary of the method: (§1)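 A673 cells (normalized to PPIA) or K562 cells (normalized to GAPDH or GUSB) were treated 24 h at 37 °C with an 11-point 3-fold dilution series, top 10 uM, DMSO ≤0.25%. Cell lysates went to one-step RT-qPCR measuring canonical- and alternative-junction MYB or HTT transcripts.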

HTT mRNA = assay: RT-qPCR splicing assay, HTT canonical junction (CJ) and alternative junction (AJ) mRNA; conditions: Homo sapiens; for AC50: increase in HTT alternative junction (AJ) mRNA, read-out: HTT AJ AC50
Summary of the method: as §1

Target C [2] = assay: HiBiT protein abundance assay, Target C (Promega Nano-Glo HiBiT Lytic Detection System, knock-in K562 cell line); conditions: Homo sapiens, K562, 24 h, HiBiT K562 cell line, 24 hours, top dose 10 μM; read-out: Effect on protein abundance, Target C (IC50 category)
Summary of the method: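 Knock-in K562 cells carrying HiBiT-tagged Target C, 10,000 per well, treated 24 h at 37 °C with 10-point threefold dilutions (top 10 μM final, ≤0.25% DMSO). Lytic HiBiT luminescence read; response normalised to unmodified K562 and DMSO controls, four-parameter fit interpolated at 50% for IC50.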

[3] = Table 5 panel, canonical junction qPCR, compound concentration having 50% response in CJ decrease, read-out: MYB IC50 (decrease in CJ mRNA levels)
[4] = decrease in MYB canonical junction (CJ) mRNA, RT-qPCR, read-out: MYB CJ IC50
[5] = decrease in HTT canonical junction (CJ) mRNA, RT-qPCR, read-out: HTT CJ IC50
[6] = Table 5 panel, canonical junction qPCR, compound concentration having 50% response in CJ decrease, read-out: HTT IC50 (decrease in CJ mRNA levels)

Cc1cn2nc(-c3ccc4c(c3)CCN(C3CCN(C)CC3)C4=O)cc(C)c2n1 [Compound 268]
IC50 (Target C [1]): > 10 µM | IC50 (MYB mRNA; [3]): 1 to 10 µM | IC50 (MYB mRNA; [4]): 0.1 to 1 µM | AC50 (MYB mRNA; RT-qPCR): 1 to 10 µM | IC50 (HTT mRNA; [5]): 1 to 10 µM | AC50 (HTT mRNA; RT-qPCR): 1 to 10 µM | IC50 (HTT mRNA; [6]): 1 to 10 µM | IC50 (Target C [2]): > 10 µM

Cc1cn2nc(-c3ccc4c(=O)n(C5CCNCC5)cnc4c3)nc2c(C)n1 [Compound 287, 7-{6,8-dimethyl-[1,2,4]triazolo[1,5-a]pyrazin-2-yl}-3-(piperidin-4-yl)quinazolin-4-one]
IC50 (Target C [1]): 0.1 to 1 µM | IC50 (MYB mRNA; [3]): 0.1 to 1 µM | IC50 (MYB mRNA; [4]): 0.1 to 1 µM | AC50 (MYB mRNA; RT-qPCR): 0.1 to 1 µM | IC50 (HTT mRNA; [5]): 0.1 to 1 µM | AC50 (HTT mRNA; RT-qPCR): 0.1 to 1 µM | IC50 (HTT mRNA; [6]): 0.1 to 1 µM | IC50 (Target C [2]): 0.1 to 1 µM

Cc1cn2cc(-c3ccc4c(=O)n([C@@H]5CCN[C@H](C)C5)cnc4c3)cc(F)c2n1 [Compound 295]
IC50 (Target C [1]): > 10 µM | IC50 (MYB mRNA; [3]): 0.1 to 1 µM | IC50 (MYB mRNA; [4]): 0.1 to 1 µM | AC50 (MYB mRNA; RT-qPCR): 0.1 to 1 µM | IC50 (HTT mRNA; [5]): 1 to 10 µM | AC50 (HTT mRNA; RT-qPCR): 1 to 10 µM | IC50 (HTT mRNA; [6]): 1 to 10 µM | IC50 (Target C [2]): 1 to 10 µM

Cn1cc2cc(-n3cnc4cc(C5=CCNCC5)ccc4c3=O)ccc2n1 [Compound 158]
IC50 (MYB mRNA; [3]): > 10 µM | IC50 (MYB mRNA; [4]): > 10 µM | AC50 (MYB mRNA; RT-qPCR): > 10 µM | IC50 (HTT mRNA; [5]): > 10 µM | AC50 (HTT mRNA; RT-qPCR): > 10 µM | IC50 (HTT mRNA; [6]): > 10 µM | IC50 (Target C [2]): 1 to 10 µM

CNc1cc(-c2cc(F)c3nc(C)cn3c2)cc2ncn(C3CCNCC3)c(=O)c12 [Compound 358, 7-{8-fluoro-2-methylimidazo[1,2-a]pyridine-6-yl}-5-(methylamino)-3-(piperidin-4-yl)quinazolin-4-one]
IC50 (Target C [1]): > 10 µM | IC50 (MYB mRNA; [3]): 1 to 10 µM | IC50 (MYB mRNA; [4]): 1 to 10 µM | AC50 (MYB mRNA; RT-qPCR): 1 to 10 µM | IC50 (HTT mRNA; [5]): > 10 µM | AC50 (HTT mRNA; RT-qPCR): 1 to 10 µM | IC50 (HTT mRNA; [6]): 1 to 10 µM | IC50 (Target C [2]): 1 to 10 µM

Cc1nc2c(F)cc(-c3ccc4c(=O)n(C5CCN(C)CC5)cnc4c3)cc2o1 [Compound 300]
IC50 (Target C [1]): 1 to 10 µM | IC50 (MYB mRNA; [3]): 1 to 10 µM | IC50 (MYB mRNA; [4]): 0.1 to 1 µM | AC50 (MYB mRNA; RT-qPCR): 1 to 10 µM | IC50 (HTT mRNA; [5]): 1 to 10 µM | AC50 (HTT mRNA; RT-qPCR): 0.1 to 1 µM | IC50 (HTT mRNA; [6]): 0.1 to 1 µM | IC50 (Target C [2]): 1 to 10 µM

Cc1cn2cc(-c3ccc4c(=O)n(C5CCNCC5)cnc4c3)cc(C)c2n1 [Compound 292]
IC50 (Target C [1]): 1 to 10 µM | IC50 (MYB mRNA; [3]): 0.1 to 1 µM | IC50 (MYB mRNA; [4]): 0.1 to 1 µM | AC50 (MYB mRNA; RT-qPCR): 0.1 to 1 µM | IC50 (HTT mRNA; [5]): 0.1 to 1 µM | AC50 (HTT mRNA; RT-qPCR): 0.1 to 1 µM | IC50 (HTT mRNA; [6]): 0.1 to 1 µM | IC50 (Target C [2]): 1 to 10 µM

Cn1cc2cc(-n3cnc4cc(N5CCNCC5)ccc4c3=O)ccc2n1 [Compound 153]
IC50 (MYB mRNA; [3]): 1 to 10 µM | IC50 (MYB mRNA; [4]): > 10 µM | AC50 (MYB mRNA; RT-qPCR): > 10 µM | IC50 (HTT mRNA; [5]): > 10 µM | AC50 (HTT mRNA; RT-qPCR): > 10 µM | IC50 (HTT mRNA; [6]): > 10 µM | IC50 (Target C [2]): > 10 µM

Cc1cn2nc(-c3cc(F)c4c(=O)n([C@@H]5CCNC6(CC6)C5)cnc4c3)cc(C)c2n1 [Compound 356]
IC50 (Target C [1]): 0.1 to 1 µM | IC50 (MYB mRNA; [3]): 0.1 to 1 µM | IC50 (MYB mRNA; [4]): < 0.1 µM | AC50 (MYB mRNA; RT-qPCR): 0.1 to 1 µM | IC50 (HTT mRNA; [5]): < 0.1 µM | AC50 (HTT mRNA; RT-qPCR): 0.1 to 1 µM | IC50 (HTT mRNA; [6]): 0.1 to 1 µM | IC50 (Target C [2]): < 0.1 µM

Cc1cn2nc(-c3ccc4c(=O)n(C5CCCNCC5)ncc4c3)cc(C)c2n1 (centres unmarked) [Compound 283]
IC50 (Target C [1]): 0.1 to 1 µM | IC50 (MYB mRNA; [3]): 0.1 to 1 µM | IC50 (MYB mRNA; [4]): 0.1 to 1 µM | AC50 (MYB mRNA; RT-qPCR): 0.1 to 1 µM | IC50 (HTT mRNA; [5]): 0.1 to 1 µM | AC50 (HTT mRNA; RT-qPCR): 0.1 to 1 µM | IC50 (HTT mRNA; [6]): 0.1 to 1 µM | IC50 (Target C [2]): 0.1 to 1 µM

Cc1cn2cc(-c3ccc4c(=O)n([C@H]5CCN[C@H](C)C5)cnc4c3)cc(F)c2n1 [Compound 296]
IC50 (Target C [1]): 0.1 to 1 µM | IC50 (MYB mRNA; [3]): < 0.1 µM | IC50 (MYB mRNA; [4]): < 0.1 µM | AC50 (MYB mRNA; RT-qPCR): < 0.1 µM | IC50 (HTT mRNA; [5]): 0.1 to 1 µM | AC50 (HTT mRNA; RT-qPCR): 0.1 to 1 µM | IC50 (HTT mRNA; [6]): 0.1 to 1 µM | IC50 (Target C [2]): 0.1 to 1 µM
